{"source": "patent US11564913B2", "about": "“Compositions and methods for treating cancer” (Children's Hospital Medical Center, priority 2019, dated 2023)", "format_in_all_cases": "cell-based", "key": {"MCF10A cells": {"system": "MCF10A cells", "assay": "Cell proliferation, trypan blue exclusion counting", "conditions": "0.1 to 10 μM", "method": "(§1) FIG. 4. IODVA1 inhibits proliferation of cancer model cells. (A) IODVA1 is a potent cell proliferation inhibitor. MCF10A, MCF7, MDA-MB-231, and T47D cells were grown in the presence of the indicated IODVA1 concentrations and counted for 4 or up to 7 days. Each dot and bar is the mean±stdev respectively, of 3 independent experiments, with 2 technical replicates in each experiment. (B) Number of colonies made by MCF7, T47D, and MDA-MB-231 cells at the indicated IODVA1 concentrations. Results shown are mean±stdev of 2 independent experiments with 4 technical replicates each. (C) IODVA1 deactivates Ras at late incubation times. […] Quantification summary of 2 independent experiments is presented in the graph. n.s.—not significant, *-p<0.05, **-p<0.01, ****-p<0.0001. (D) IODVA1 inhibits proliferation of ST8814 cells. ST8814 cells were grown in the presence of the indicated IODVA1 concentrations and counted daily for 4 days. Each dot and bar is the mean and standard deviation respectively, of 3 independent experiments.\n(§2) Applicants tested IODVA1's ability to inhibit the proliferation of cells harboring activated Ras and therefore its ability to recapitulate the compound obtained from the NCI. Applicants chose the NF1-associated malignant peripheral nerve sheath tumors (MPNST) cell line ST8814, which is characterized by active wild-type Ras (Basu et al., 1992; Mahller et al., 2006) and the triple negative breast cancer cell line MDA-MB-231 carrying the oncogenic KRAS^G13D mutation (Hollestelle et al., 2007). In addition, applicants used the non-transformed mammary epithelial cell line MCF10A (RAS^WT immortalized by a spontaneous t(3;9)(3p13;9p22) translocation that deletes the CDKN2A gene, also known as p16) and the non-invasive estrogen receptor (ER) and progesterone receptor (PR) positive RAS^WT breast cancer cell line MCF7 (wild-type p53) and T47D (mutant p53). Cells were grown in growth media containing IODVA1 at concentrations between 0.1 and 10 μM or vehicle control and cell number was counted using the trypan blue exclusion method. […] Appreciable decrease in proliferation of non-transformed MCF10A cells was not observed."}, "MCF7 cells [1]": {"system": "MCF7 cells", "assay": "Cell proliferation, trypan blue exclusion counting", "conditions": "Homo sapiens, read-out: estimated GI50", "method": "as §1, §2"}, "MDA-MB-231 cells": {"system": "MDA-MB-231 cells", "assay": "Cell proliferation, trypan blue exclusion counting", "conditions": "Homo sapiens, read-out: estimated GI50", "method": "as §1, §2"}, "ST8814 cells": {"system": "ST8814 cells", "assay": "Cell proliferation, trypan blue exclusion counting", "conditions": "ST88-14, 96 h; day 4; read-out: 50% growth inhibitory concentration (GI50)", "method": "as §1, §2"}, "T47D cells [2]": {"system": "T47D cells", "assay": "Cell proliferation, trypan blue exclusion counting", "conditions": "Homo sapiens, read-out: estimated GI50", "method": "as §1, §2"}, "MCF7 cells [3]": {"system": "MCF7 cells", "assay": "Cell spreading on fibronectin", "conditions": "30 min exposure, serum-free", "method": "(§3) FIG. 6: IODVA1 inhibits cell-substratum and cell-cell interactions. (A) IODVA1 impedes spreading of MCF7 and MDA-MB-231 cells on fibronectin. MCF7, T47D, and MDA-MB-231 cells were incubated on fibronectin coated coverslips for 10 min, then further incubated with the indicated concentrations of IODVA1 for 30 min in serum-free media, fixed and observed by bright field microscopy. Areas of single cells were calculated from 6 random fields (no less than 300 cells total per treatment group). Results shown are mean±s.e.m. of a single experiment and are representative of three independent experiments. (B) Effects of IODVA1 treatment on spheroid formation in MCF10A, MCF7, T47D, and MDA-MB-231 cells. […] Aggregates and spheroids were dissociated with accutase and trituration, and the number of live cells was determined by trypan blue exclusion. […]\n(§4) Applicants assessed if IODVA1 interferes with cell spreading on the extracellular matrix, an event that is also governed by the rearrangement of the actin cytoskeleton. […] No changes in the area in T47D cells were detected, although more rounded cells in the presence of IODVA1 were observed.\n(§5) For cell spreading, MDA-MB-231, MCF7 and T47D were seeded on fibronectin-coated coverslips in serum-free media. […] Six random fields were imaged under 20× objective and cell area of individual cells were quantified to assess the degree of spreading (ImageJ). […]"}, "T47D cells [4]": {"system": "T47D cells", "assay": "Cell spreading on fibronectin", "conditions": "0-3 μM, 30 min", "method": "as §3, §4, §5"}, "[5]": {"system": "MCF7, T47D, and MDA-MB-231 cells", "assay": "Spheroid formation in ultra-low attachment plates, live cell count", "conditions": "0-3 μM, 5 days", "method": "as §3\nFor the spheroid formation in the ultra-low attachment plates, MCF7, T47D, and MDA-MB-231 (5,000 cells) were incubated in complete media with IODVA1 at 0-3 μM for 5 days. Aggregates and spheroids were dissociated with Accutase and live cells were counted using trypan blue exclusion.\nSpheroids were formed by the hanging drop method or using ultra-low attachment (ULA) plates (Corning). […] Spheroid formation was monitored daily and imaged using EVOS microscope (Life Technologies). […]"}}, "data": [{"smiles": "OC1(c2ccccn2)N=C(Nc2nc3ccccc3[nH]2)N=C1c1ccccn1", "note": "(centres unmarked) [IODVA1, (Z)-2-((1H-benzo[d]imidazol-2-yl)imino)-4,5-di(pyridin-2-yl)-2,5-dihydro-1H-imidazol-5-ol]", "values": [{"measurement": "appreciable decrease in proliferation", "setting": "MCF10A cells", "result": "not observed"}, {"measurement": "GI50", "setting": "MCF7 cells [1]", "result": "≤ 1000", "unit": "nM"}, {"measurement": "GI50", "setting": "MDA-MB-231 cells", "result": "≤ 1000", "unit": "nM"}, {"measurement": "GI50", "setting": "ST8814 cells", "result": 1000, "unit": "nM"}, {"measurement": "GI50", "setting": "T47D cells [2]", "result": "≤ 1000", "unit": "nM"}, {"measurement": "concentration at which spreading is interfered with (decrease in cell area)", "setting": "MCF7 cells [3]", "result": 0.3, "unit": "µM"}, {"measurement": "changes in cell area", "setting": "T47D cells [4]", "result": "No changes"}, {"measurement": "number of live cells in a spheroid", "setting": "[5]", "result": "significantly decreased"}]}]}
